Assay results: the supplement of paper PMC10331698
± gives the standard deviation of the averaged measurements.

Tests used:
Test in all cases: level (log10 ratio to DMSO vehicle control); higher = higher biomarker level / cell amount than vehicle control
Conditions in all cases: in DMSO
Perfluorobutanoic acid = compound: O=C(O)C(F)(F)C(F)(F)C(F)(F)F [Perfluorobutanoic acid]
Description: (§1)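 BioMAP Diversity Plus panel of 12 human primary cell co-culture systems (3C, 4H, LPS, SAg, BT, BF4T, BE3C, CASM3C, HDF3CGF, KF3CT, MyoF, Mphg). Compounds were added 1 h before stimulation and left for 24 h (MyoF 48 h; BT 72 h for soluble read-outs or 6 d for IgG). Biomarkers were read by ELISA, cytotoxicity by SRB, PBMC viability and proliferation by Alamar Blue. Each well value was divided by the mean of 8 DMSO control wells on the same plate and log10 transformed; duplicate blinded samples were tested at 4 concentrations.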

[1] = compound: O=C(O)C(F)(F)OC(F)(F)C(F)(F)OC(F)(F)C(=O)O [Perfluoro-3,6-dioxaoctane-1,8-dioic acid]
Description: as §1

[2] = compound: OCC(F)(F)OC(F)(F)C(F)(F)OC(F)(F)CO [1H,1H,8H,8H-Perfluoro-3,6-dioxaoctane-1,8-diol]
Description: as §1

Perfluoropropanoic acid = compound: O=C(O)C(F)(F)C(F)(F)F [Perfluoropropanoic acid]
Description: as §1

Perfluoro-1-iodohexane = compound: FC(F)(F)C(F)(F)C(F)(F)C(F)(F)C(F)(F)C(F)(F)I [Perfluoro-1-iodohexane]
Description: as §1

[3] = compound: O=C(O)C(F)(F)C(F)(F)OC(F)(F)F [Perfluoro-3-methoxypropanoic acid]
Description: as §1

[4] = compound: OCCC(F)(F)C(F)(F)C(F)(F)C(F)(F)C(F)(F)C(F)(F)F [6:2 Fluorotelomer alcohol]
Description: as §1

| Test System | level (log10) (Perfluorobutanoic acid; 6700 nM) | level (log10) (Perfluorobutanoic acid; 20000 nM) | level (log10) (Perfluorobutanoic acid; 60000 nM) | level (log10) ([1]; 6700 nM) | level (log10) ([1]; 20000 nM) | level (log10) ([1]; 60000 nM) | level (log10) ([2]; 6700 nM) | level (log10) ([2]; 20000 nM) | level (log10) ([2]; 60000 nM) | level (log10) (Perfluoropropanoic acid; 6700 nM) | level (log10) (Perfluoropropanoic acid; 20000 nM) | level (log10) (Perfluoropropanoic acid; 60000 nM) | level (log10) (Perfluoro-1-iodohexane; 6700 nM) | level (log10) (Perfluoro-1-iodohexane; 20000 nM) | level (log10) (Perfluoro-1-iodohexane; 60000 nM) | level (log10) ([3]; 6700 nM) | level (log10) ([3]; 20000 nM) | level (log10) ([3]; 60000 nM) | level (log10) ([4]; 6700 nM) | level (log10) ([4]; 20000 nM) |
| --- | --- | --- | --- | --- | --- | --- | --- | --- | --- | --- | --- | --- | --- | --- | --- | --- | --- | --- | --- | --- |
| HDF3CGF:Proliferation 72hr | 0.01 ± 0.054 | 0.0145 ± 0.0021 | 0.0285 ± 0.029 | 0.0035 ± 0.0035 | 0.008 ± 0.016 | 0.012 ± 0.035 | -0.001 ± 0.031 | 0.0325 ± 0.044 | -0.053 ± 0.031 | 0.006 ± 0.0042 | -0.01 ± 0.045 | 0.0325 ± 0.0078 | -0.0315 ± 0.019 | -0.028 ± 0.0014 | -0.468 ± 0.57 | -0.028 ± 0.0085 | 0.0125 ± 0.016 | 0.0225 ± 0.023 | -0.007 ± 0.05 | 0.0005 ± 0.086 |
| MyoF:Decorin | -0.013 ± 0.0014 | -0.0105 ± 0.039 | -0.0025 ± 0.00071 | -0.0045 ± 0.011 | -0.01 | -0.0005 ± 0.013 | -0.0155 ± 0.011 | 0.003 ± 0.0071 | 0.02 ± 0.02 | -0.0255 ± 0.073 | 0.002 ± 0.11 | 0.046 ± 0.089 | 0.0185 ± 0.011 | 0.023 ± 0.0042 | -0.012 ± 0.044 | 0.005 ± 0.017 | 0.0085 ± 0.0078 | 0.0085 ± 0.03 | -0.0055 ± 0.0021 | 0.0085 ± 0.011 |
| HDF3CGF:CD106/VCAM-1 | -0.008 ± 0.0014 | 0.0295 ± 0.026 | -0.0085 ± 0.015 | -0.0075 ± 0.00071 | -0.0085 ± 0.016 | -0.0035 ± 0.05 | -0.0145 ± 0.011 | -0.0145 ± 0.026 | 0.0115 ± 0.018 | -0.0555 ± 0.0035 | -0.018 ± 0.0014 | 0.0175 ± 0.052 | -0.027 ± 0.024 | -0.032 ± 0.014 | -0.405 ± 0.44 | -0.008 ± 0.02 | 0.0165 ± 0.052 | -0.0005 ± 0.036 | -0.0175 ± 0.063 | -0.0145 ± 0.042 |
| CASM3C:CXCL8/IL-8 | -0.001 ± 0.013 | -0.0065 ± 0.005 | 0.008 ± 0.013 | 0.016 ± 0.042 | 0.0125 ± 0.011 | 0.023 ± 0.0071 | 0.0045 ± 0.0064 | -0.002 ± 0.0028 | 0.0125 ± 0.013 | 0.001 ± 0.011 | -0.003 ± 0.023 | 0.0185 ± 0.043 | 0.0055 ± 0.0092 | -0.0005 ± 0.0078 | 0.011 ± 0.021 | 0.0045 ± 0.03 | 0.006 ± 0.03 | 0.033 ± 0.0028 | 0.019 ± 0.0014 | 0.0195 ± 0.015 |
